Target: T1, soluble guanylate cyclase (sGC) expressed by CHO-K1-Rat sGC monoclonal cell line (Rattus norvegicus, UniProt P19686+P20595)
T1 construct: expressed in transfected cells; host or cells: CHO-K1
T1 sequence (P19686 1-690): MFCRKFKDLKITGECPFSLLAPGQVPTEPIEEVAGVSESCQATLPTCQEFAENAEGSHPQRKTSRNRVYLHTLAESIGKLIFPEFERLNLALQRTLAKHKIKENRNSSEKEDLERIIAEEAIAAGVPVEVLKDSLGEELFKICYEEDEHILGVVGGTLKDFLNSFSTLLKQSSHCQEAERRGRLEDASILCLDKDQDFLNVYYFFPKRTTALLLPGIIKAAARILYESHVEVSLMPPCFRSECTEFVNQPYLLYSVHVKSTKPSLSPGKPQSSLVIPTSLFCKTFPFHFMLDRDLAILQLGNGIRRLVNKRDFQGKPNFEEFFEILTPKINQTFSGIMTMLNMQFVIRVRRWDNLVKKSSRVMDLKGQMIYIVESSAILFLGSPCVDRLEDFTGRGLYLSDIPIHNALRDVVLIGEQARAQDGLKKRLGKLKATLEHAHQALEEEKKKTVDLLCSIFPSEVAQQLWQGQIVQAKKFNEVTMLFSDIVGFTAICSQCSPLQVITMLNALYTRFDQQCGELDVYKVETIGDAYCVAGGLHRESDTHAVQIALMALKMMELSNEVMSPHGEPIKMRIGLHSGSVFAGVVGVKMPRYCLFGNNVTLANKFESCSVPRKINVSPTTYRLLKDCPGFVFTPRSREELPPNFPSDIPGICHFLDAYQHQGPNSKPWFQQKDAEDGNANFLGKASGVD
T1 sequence (P20595 1-619): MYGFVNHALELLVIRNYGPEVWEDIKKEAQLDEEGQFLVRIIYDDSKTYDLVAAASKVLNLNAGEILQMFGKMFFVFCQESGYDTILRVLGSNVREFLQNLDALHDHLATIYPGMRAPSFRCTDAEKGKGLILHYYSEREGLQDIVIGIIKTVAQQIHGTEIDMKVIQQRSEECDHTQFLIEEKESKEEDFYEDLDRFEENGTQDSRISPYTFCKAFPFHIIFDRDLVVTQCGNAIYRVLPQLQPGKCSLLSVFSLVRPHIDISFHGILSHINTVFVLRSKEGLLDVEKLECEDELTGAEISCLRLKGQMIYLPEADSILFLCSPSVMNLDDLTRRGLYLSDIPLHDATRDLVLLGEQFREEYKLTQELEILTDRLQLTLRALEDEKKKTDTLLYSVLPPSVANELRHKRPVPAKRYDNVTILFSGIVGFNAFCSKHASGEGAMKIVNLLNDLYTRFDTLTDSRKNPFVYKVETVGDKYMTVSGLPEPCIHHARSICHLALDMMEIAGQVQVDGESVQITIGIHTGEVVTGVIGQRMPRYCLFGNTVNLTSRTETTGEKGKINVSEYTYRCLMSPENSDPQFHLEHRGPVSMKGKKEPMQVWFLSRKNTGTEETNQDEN
Assay: Effect on recombinant guanylate cyclase reporter cell line (CHO-K1-Rat sGC, Cisbio cGMP HTRF)
Type: cell-based
Details: activating soluble guanylate cyclase
From the text: Transfection of Soluble Guanylate Cyclase (sGC) gene into CHO-K1 cells and selection of cells with stably and highly expressed sGC: Rat sGCα1 and Rat sGCβ1 Genes were synthesized, and then pcDNA3.1(+)-rat sGCα1 and pcDNA3.1/Hygro (+)-rat sGCβ1 plasmid were constructed; the plasmid was co-transfected into CHO-K1 cells, and a positive clone cell line stably expressing CHO-K1-Rat sGC was selected using the Cisbio cGMP HTRF assay kit.
The activity of the compound on the CHO-K1-Rat sGC monoclonal cell line was determined: The CHO-K1-Rat sGC monoclonal cell line was cultured, and used for test operation at degree of fusion of about 70% to 90%. The cells were resuspended in complete medium after TrypLE digestion; the cells were inoculated in a 384-well (low volume tissues culture treated) cell culture plate at a seeding density of 7500/well in 25 μL of complete medium and incubated at 37° C. in 5% CO2 atmosphere for 20 hours; the test compounds were dissolved and dilute with DMSO to give 10 concentration gradients (2× working concentration); 384-well cell culture plates were centrifugated (200 g) for 3 seconds by inversion at RT, medium was removed; The test compounds in each different concentration gradient and corresponding reagent were added into each cell well according to the detection process of Cisbio cGMP HTRF assay kit. The data were collected with Envision HTRF detector and the EC50 value of each compound in activating soluble guanylate cyclase was calculated.

Row | EC50 [nM] | SMILES
1 | 680 | Nc1nc(-c2nn(Cc3ccccc3F)c3cc(F)ccc23)nc(N)c1NC1CCOC1 (stereo not drawn) [Example 9, 2-(6-fluoro-1-(2-fluorobenzyl)-1H-indazol-3-yl)-N^5-(tetrahydrofuran-3-yl) pyrimidine-4,5,6-triamine]
2 | 120 | Nc1nc(-c2nn(Cc3ccccc3F)c3c(F)cccc23)nc(N)c1NC1CCOC1 (stereo not drawn) [Example 12, 2-(7-fluoro-1-(2-fluorobenzyl)-1H-indazol-3-yl)-N^5-(tetrahydrofuran-3-yl)pyrimidine-4,5,6-triamine]
3 | 62 | Nc1nc(-c2nn(Cc3ccccc3F)c3c(F)cccc23)nc(N)c1N1CCOCC1 [Example 14, 2-(7-fluoro-1-(2-fluorobenzyl)-1H-indazol-3-yl)-5-morpholinopyrimidine-4,6-diamine]
4 | 690 | Nc1nc(-c2nn(Cc3ccccc3F)c3c(F)cccc23)nc(N)c1NC(=O)C1CCCO1 (stereo not drawn) [Example 16, N-(4,6-diamino-2-(7-fluoro-1-(2-fluorobenzyl)-1H-indazol-3-yl)pyrimidin-5-yl)tetrahydrofuran-2-carboxamide]
5 | 420 | Nc1nc(-c2nn(Cc3ccccc3F)c3c(F)cccc23)nc(N)c1NC(=O)C1CCCCO1 (stereo not drawn) [Example 17, N-(4,6-diamino-2-(7-fluoro-1-(2-fluorobenzyl)-1H-indazol-3-yl)pyrimidin-5-yl)tetrahydro-2H-pyran-2-carboxamide]
6 | 860 | Oc1nc(-c2nn(Cc3ccccc3F)c3c(F)cccc23)ncc1F [Example 25, 5-fluoro-2-(7-fluoro-1-(2-fluorobenzyl)-1H-indazol-3-yl)pyrimidin-4-ol]
7 | 100 | CC(C)(O)CNc1c(N)nc(-c2nn(Cc3ccccc3F)c3c(F)cccc23)nc1N [Example 26, 1-((4,6-diamino-2-(7-fluoro-1-(2-fluorobenzyl)-1H-indazol-3-yl)pyrimidin-5-yl)amino)-2-methylpropan-2-ol]
8 | 94 | CC(Nc1c(N)nc(-c2nn(Cc3ccccc3F)c3c(F)cccc23)nc1N)C1CCOCC1 (stereo not drawn) [Example 28, 2-(7-fluoro-1-(2-fluorobenzyl)-1H-indazol-3-yl)-N^5-(1-(tetrahydro-2H-pyran-4-yl)ethyl)pyrimidine-4,5,6-triamine]
9 | 820 | Nc1nc(-c2nn(Cc3ccccc3F)c3c(F)cccc23)ncc1C(=O)O [Example 30, 4-amino-2-(7-fluoro-1-(2-fluorobenzyl)-1H-indazol-3-yl)pyrimidine-5-carboxylic acid]
10 | 35 | Nc1nc(-c2nn(Cc3ccccc3F)c3c(F)cccc23)ncc1C(=O)NC1CC1 [Example 31, 4-amino-N-cyclopropyl-2-(7-fluoro-1-(2-fluorobenzyl)-1H-indazol-3-yl) pyrimidine-5-carboxamide]
11 | 89 | CNC(=O)c1cnc(-c2nn(Cc3ccccc3F)c3c(F)cccc23)nc1N [Example 32, 4-amino-2-(7-fluoro-1-(2-fluorobenzyl)-1H-indazol-3-yl)-N-methyl pyrimidine-5-carboxamide]
12 | 810 | COC(=O)N(C)c1c(N)nc(-c2nn(Cc3cncnc3)c3c(F)cccc23)nc1N [Example 34, methyl (4,6-diamino-2-(7-fluoro-1-(pyrimidin-5-ylmethyl)-1H-indazol-3-yl)pyrimidin-5-yl)(methyl)carbamate]
13 | 760 | Nc1nc(-c2nn(Cc3ccccc3F)c3c(F)cccc23)nc(N)c1C(=O)O [Example 42, 4,6-diamino-2-(7-fluoro-1-(2-fluorobenzyl)-1H-indazol-3-yl)pyrimidine-5-carboxylic acid]
14 | 340 | Nc1nc(-c2nn(Cc3ccccc3F)c3c(F)cccc23)nc(N)c1C(=O)NC1CC1 [Example 44, 4,6-diamino-N-cyclopropyl-2-(7-fluoro-1-(2-fluorobenzyl)-1H-indazol-3-yl) pyrimidine-5-carboxamide]
15 | 160 | CN(C)C(=O)c1cnc(-c2nn(Cc3ccccc3F)c3c(F)cccc23)nc1N [Example 45, 4-amino-2-(7-fluoro-1-(2-fluorobenzyl)-1H-indazol-3-yl)-N,N-dimethyl pyrimidine-5-carboxamide]
16 | 200 | Nc1nc(-c2nn(Cc3ccccc3F)c3c(F)cccc23)ncc1C(=O)N1CCOCC1 [Example 46, (4-amino-2-(7-fluoro-1-(2-fluorobenzyl)-1H-indazol-3-yl)pyrimidin-5-yl) (morpholino)methanone]
17 | 120 | Nc1nc(-c2nn(Cc3ccccc3F)c3c(F)cccc23)ncc1C(=O)N1CCCC1 [Example 47, (4-amino-2-(7-fluoro-1-(2-fluorobenzyl)-1H-indazol-3-yl)pyrimidin-5-yl) (pyrrolidin-1-yl)methanone]
18 | 270 | Nc1nc(-c2nn(Cc3ccccc3F)c3c(F)cccc23)ncc1C(=O)NCCO [Example 49, 4-amino-2-(7-fluoro-1-(2-fluorobenzyl)-1H-indazol-3-yl)-N-(2-hydroxyethyl)pyrimidine-5-carboxamide]
19 | 420 | Nc1nc(-c2nn(Cc3ccccc3F)c3c(F)cccc23)ncc1C(=O)N1CCS(=O)(=O)CC1 [Example 51, (4-amino-2-(7-fluoro-1-(2-fluorobenzyl)-1H-indazol-3-yl)pyrimidin-5-yl) (1,1-dioxidothiomorpholino)methanone]
20 | 110 | Nc1nc(-c2nn(Cc3ccccc3F)c3c(F)cccc23)ncc1C(=O)N1CCC(F)(F)CC1 [Example 52, (4-amino-2-(7-fluoro-1-(2-fluorobenzyl)-1H-indazol-3-yl)pyrimidin-5-yl) (4,4-difluoropiperidin-1-yl)methanone]
21 | 390 | CN1CCN(C(=O)c2cnc(-c3nn(Cc4ccccc4F)c4c(F)cccc34)nc2N)CC1 [Example 53, (4-amino-2-(7-fluoro-1-(2-fluorobenzyl)-1H-indazol-3-yl)pyrimidin-5-yl) (4-methylpiperazin-1-yl)methanone]
22 | 140 | Nc1nc(-c2nn(Cc3ccccc3F)c3c(F)cccc23)ncc1C(=O)N1CC(O)C1 [Example 54, (4-amino-2-(7-fluoro-1-(2-fluorobenzyl)-1H-indazol-3-yl)pyrimidin-5-yl) (3-hydroxyazetidin-1-yl)methanone]
23 | 340 | CNC(=O)c1cnc(-c2nn(Cc3ccccc3F)c3c(F)cccc23)nc1 [Example 56, 2-(7-fluoro-1-(2-fluorobenzyl)-1H-indazol-3-yl)-N-methylpyrimidine-5-carboxamide]
24 | 79 | O=C(NC1CC1)c1cnc(-c2nn(Cc3ccccc3F)c3c(F)cccc23)nc1 [Example 57, N-cyclopropyl-2-(7-fluoro-1-(2-fluorobenzyl)-1H-indazol-3-yl)pyrimidine-5-carboxamide]
25 | 58 | OCCCNc1nc(-c2nn(Cc3ccccc3F)c3c(F)cccc23)ncc1F [Example 59, 3-((5-fluoro-2-(7-fluoro-1-(2-fluorobenzyl)-1H-indazol-3-yl)pyrimidin-4-yl)amino)propan-1-ol]
26 | 120 | OCCNc1nc(-c2nn(Cc3ccccc3F)c3c(F)cccc23)ncc1F [Example 60, 2-((5-fluoro-2-(7-fluoro-1-(2-fluorobenzyl)-1H-indazol-3-yl)pyrimidin-4-yl)amino)ethanol]
27 | 75 | OCCN1CCN(c2nc(-c3nn(Cc4ccccc4F)c4c(F)cccc34)ncc2F)CC1 [Example 62, 2-(4-(5-fluoro-2-(7-fluoro-1-(2-fluorobenzyl)-1H-indazol-3-yl)pyrimidin-4-yl)piperazin-1-yl)ethanol]
